≈ marks a conversion by molar mass, not a printed value. Non-standard residues stand in square brackets, D forms with d. Residues, ends and D or L forms follow the SMILES beside them. Dab = NCC[C@H](N)C(=O)O; Aib = CC(C)(N)C(=O)O
Legend:
HELA cells (Acc57) = assay: Cytotoxicity assay, MTT reduction (LC 50, GI 50); assay type: cell-based
Description: The cytotoxicity of the peptides to HELA cells (Acc57) and COS-7 cells (CRL-1651) was determined using the MIT reduction assay [see ref. 2 and 3, below]. Briefly the method was as follows: HELA cells and COS-7 cells were seeded at 7.0×10^3 and, respectively, 4.5×10^3 cells per well and grown in 96-well […] plates for 24 hours at 37° C. at 5% CO2. At this point, time zero (Tz) was determined by MTT reduction (see below). The supernatant of the remaining wells was discarded, and fresh medium and the peptides in serial dilutions of 12.5, 25 and 50 μM were dispensed into the wells. Each peptide concentration was assayed in triplicate. Incubation of the cells was continued for 48 hours at 37° C. at 5% CO2. Wells were then washed once with phosphate buffered saline (PBS) and subsequently 100 μl MIT reagent (0.5 mg/ml in medium RPMI1640 and, respectively, DMEM) were added to the wells. This was incubated at 37° C. for 2 hours and subsequently the medium was aspirated and 100 μl isopropanol were added to each well. The absorbance at 595 nm of the solubilized product was measured (OD595peptide). For each concentration averages were calculated from triplicates. The percentage of growth was calculated as follows: (OD595peptide-OD595Tz-OD595Empty well)/(OD595Tz-OD595Empty well)×100% and was plotted for each peptide concentration.
The LC 50 values (Lethal Concentration, defined as the concentration that kills 50% of the cells) were determined for each peptide by using the trend line function of EXCEL (Microsoft Office 2000) for the concentrations (50, 25, 12.5 and 0 μM), the corresponding growth percentages and the value −50, (=TREND(C50:C0,%50:%0,−50)). The GI 50 (Growth Inhibition) concentrations were calculated for each peptide by using a trend line function for the concentrations (50, 25, 12.5 and 0 […]), the corresponding percentages and the value 50, (=TREND (C50:C0,%50:%0,50).

P. aeruginosa ATCC 27853 = assay type: cell-based, Pseudomonas aeruginosa; settings: ATCC 27853
Description: (§1) The selective antimicrobial activities of the peptides were determined in 96-well plates (Nunclon polystyrene) by the standard NCCLS broth microdilution method (see ref 1, below) with slight modifications. Innocula of the microorganisms were diluted into Mueller-Hinton (MH) broth+0.02% BSA and compared with a 0.5 Mcfarland standard to give appr. 10^6 colony forming units (CFU)/ml. Aliquots (50 μl) of inoculate were added to 50 μl of MH broth+0.02% BSA containing the peptide in serial two-fold dilutions. The following microorganisms were used to determine antibiotic selectivity of the peptides: Escherichia coli (ATCC 25922), Pseudomonas aeruginosa (P. aeruginosa ATCC 27853, P8191900, P1021903, P1021913, IMP 1 Livermore 3140).

[1] = system: human red blood cells (hRBC); assay: Hemolysis; assay type: cell-based; settings: 100
Description: Hemolysis of red blood cells is often employed for assessment of toxicity of related compounds such as protegrin or tachyplesin. Values are given as %-lysis of red blood cells observed at a concentration of 100 μg/ml. Typical values determined for cationic peptides such as protegrin and tachyplesin range between 30-40% with average MIC-values of 1-5 μg/ml over a wide range of pathogens.
The peptides were tested for their hemolytic activity against human red blood cells (hRBC). Fresh hRBC were washed three times with phosphate buffered saline (PBS) by centrifugation for 10 min at 2000×g. Peptides at a concentration of 100 μM were incubated with 20% v/v hRBC for 1 hour at 37° C. The final erythrocyte concentration was approximately 0.9×10^9 cells per ml. A value of 0% and, respectively, 100% cell lysis was determined by incubation of the hRBC in the presence of PBS alone and, respectively, 0.1% Triton X-100 in H2O. The samples were centrifuged, the supernatant was 20-fold diluted in PBS buffer and the optical density (OD) of the sample at […] was measured. The 100% lysis value (OD540H20) gave an OD540 of approximately 1.3-1.8. Percent hemolysis was calculated as follows: (OD540peptide/OD540H20)×100%.

[2] = system: Pseudomonas aeruginosa P1021903; assay type: cell-based; settings: P1021903
Description: as §1

[3] = system: Pseudomonas aeruginosa IMP 1 Livermore 3140; assay type: cell-based; settings: IMP 1 Livermore 3140
Description: as §1

[4] = system: Pseudomonas aeruginosa P8191900; assay type: cell-based; settings: P8191900
Description: as §1

[5] = system: Pseudomonas aeruginosa P1021913; assay type: cell-based; settings: P1021913
Description: as §1

Row | Compound | Cytotoxicity GI50 Hela cells (HELA cells (Acc57)) [µM] | MIC P. aeruginosa ATCC 27853 (P. aeruginosa ATCC 27853) [µg/mL] | Hemolysis at 100 μg/ml [1] [%] | MIC P. aeruginosa P1021903 [2] [µg/mL] | MIC P. aeruginosa IMP1 Livermore 3140 [3] [µg/mL] | MIC P. aeruginosa P8191900 [4] [µg/mL] | MIC P. aeruginosa P1021913 [5] [µg/mL] | Average MIC (P. aeruginosa) [µg/mL]
1 | CC[C@H](C)[C@@H]1NC(=O)[C@H](Cc2c[nH]c3ccccc23)NC(=O)[C@H]([C@@H](C)O)NC(=O)[C@@H]2CCCN2C(=O)[C@H]2CCCN2C(=O)[C@H](CCN)NC(=O)[C@@H](C)NC(=O)[C@H](CCN)NC(=O)[C@H](CCN)NC(=O)[C@H](Cc2c[nH]c3ccccc23)NC(=O)[C@H](CCN)NC(=O)[C@H](CCN)NC(=O)[C@H](CCCCN)NC(=O)[C@H](CCN)NC1=O [Example 3] (cyclo(TWI[Dab]K[Dab][Dab]W[Dab][Dab][dA][Dab][dP]P)) | 34 | 0.09 (≈ 0.0569 µM) | 0.6 | 0.30 (≈ 0.19 µM) | 2.0 (≈ 1.27 µM) | 0.30 (≈ 0.19 µM) | 0.31 (≈ 0.196 µM) | 0.6
2 | CC[C@H](C)[C@@H]1NC(=O)[C@H](Cc2c[nH]c3ccccc23)NC(=O)[C@H]([C@@H](C)O)NC(=O)[C@@H]2CCCN2C(=O)[C@H]2CCCN2C(=O)[C@H](CCN)NC(=O)[C@@H](C(C)C)NC(=O)[C@H](CCN)NC(=O)[C@H](CCN)NC(=O)[C@H](Cc2c[nH]c3ccccc23)NC(=O)[C@H](CCN)NC(=O)[C@H](CCN)NC(=O)[C@H](CCCCN)NC(=O)[C@H](CCN)NC1=O [Example 4] (cyclo(TWI[Dab]K[Dab][Dab]W[Dab][Dab][dV][Dab][dP]P)) | 40 | 0.75 (≈ 0.466 µM) | 0.6 | 1.50 (≈ 0.932 µM) | >2.0 | 1.50 (≈ 0.932 µM) | 2.50 (≈ 1.55 µM) | >1
3 | CC[C@H](C)[C@@H]1NC(=O)[C@H](Cc2c[nH]c3ccccc23)NC(=O)[C@H]([C@@H](C)O)NC(=O)[C@@H]2CCCN2C(=O)[C@H]2CCCN2C(=O)[C@H](CCN)NC(=O)C(C)(C)NC(=O)[C@H](CCN)NC(=O)[C@H](CCN)NC(=O)[C@H](Cc2c[nH]c3ccccc23)NC(=O)[C@H](CCN)NC(=O)[C@H](CCN)NC(=O)[C@H](CCCCN)NC(=O)[C@H](CCN)NC1=O [Example 5] (cyclo(TWI[Dab]K[Dab][Dab]W[Dab][Dab][Aib][Dab][dP]P)) | 50 | 0.08 (≈ 0.0502 µM) | 0.6 | 0.21 (≈ 0.132 µM) | 0.75 (≈ 0.47 µM) | 0.30 (≈ 0.188 µM) | 0.21 (≈ 0.132 µM) | 0.31
4 | CC[C@H](C)[C@@H]1NC(=O)[C@H](Cc2c[nH]c3ccccc23)NC(=O)[C@H]([C@@H](C)O)NC(=O)[C@@H]2CCCN2C(=O)[C@H]2CCCN2C(=O)[C@H](CCN)NC(=O)[C@H](CC(C)C)NC(=O)[C@H](CCN)NC(=O)[C@H](CCN)NC(=O)[C@H](Cc2c[nH]c3ccccc23)NC(=O)[C@H](CCN)NC(=O)[C@H](CCN)NC(=O)[C@H](CCCCN)NC(=O)[C@H](CCN)NC1=O [Example 7] (cyclo(TWI[Dab]K[Dab][Dab]W[Dab][Dab]L[Dab][dP]P)) | 13 | 0.13 (≈ 0.0801 µM) | 0.8 | 1.50 (≈ 0.924 µM) | >2 | 0.50 (≈ 0.308 µM) | 0.65 (≈ 0.4 µM) | >1
5 | CC[C@H](C)[C@@H]1NC(=O)[C@H](Cc2c[nH]c3ccccc23)NC(=O)[C@H]([C@@H](C)O)NC(=O)[C@@H]2CCCN2C(=O)[C@H]2CCCN2C(=O)[C@H](CCN)NC(=O)[C@H]([C@@H](C)CC)NC(=O)[C@H](CCN)NC(=O)[C@H](CCN)NC(=O)[C@H](Cc2c[nH]c3ccccc23)NC(=O)[C@H](CCN)NC(=O)[C@H](CCN)NC(=O)[C@H](CCCCN)NC(=O)[C@H](CCN)NC1=O [Example 8] (cyclo(TWI[Dab]K[Dab][Dab]W[Dab][Dab]I[Dab][dP]P)) | 50 | 0.05 (≈ 0.0308 µM) | 0 | 0.18 (≈ 0.111 µM) | 0.43 (≈ 0.265 µM) | 0.18 (≈ 0.111 µM) | 0.31 (≈ 0.191 µM) | 0.23

Reference: patent publication US9521846B2, “Template-fixed peptidomimetics with antimicrobial activity” (priority 2006, dated 2016)
